The source of these data is patent publication US9061010B2, “Methods of treating a Flaviviridae family viral infection and compositions for treating a Flaviviridae family viral infection” (The Board of Trustees of the Leland Stanford Junior …, priority 2007, dated 2015).

Data set [1] deals with HCV RNA replication (full-length luciferase reporter-linked HCV genome). Kind of data set: Luciferase reporter-linked HCV replication assay in Huh7.5 cells. It counts as cell-based, Hepatitis C Virus. The settings on record: for percent of normal HCV RNA replication remaining at 5 µM / percent of normal HCV RNA replication remaining at 10 µM: Hepatitis C virus, Huh7.5, read-out: AV, percent of normal HCV RNA replication remaining. How it is done: For example, HCV replication assays employing a luciferase reporter-linked HCV genome in the presence of various combinations of clemizole and an NS3 protease inhibitor (SCH503034) are shown in FIGS. 1A and 1B. In such assays, luciferase activity is directly proportional to HCV RNA genome replication. […] The results can be plotted on a linear or log scale as a function of drug concentrations to generate replication inhibition curves.
Luciferase assays were performed at 72 hr.
Medium was changed daily.
The experiment was repeated four times, each time with triplicates.

Another data set has as its system Huh7.5 cells. As to the kind of experiment: Alamar Blue viability assay. The procedure:
(§1) Huh-7.5 cells were maintained in Dulbecco's modified minimal essential medium (Gibco) supplemented with 1% L-glutamine (Gibco), 1% penicillin, 1% streptomycin (Gibco), 1× nonessential amino acids (Gibco) and 10% fetal bovine serum (Omega Scientific). Cell lines were passaged twice weekly after treatment with 0.05% trypsin-0.02% EDTA and seeding at a dilution of 1:5. Subconfluent Huh-7.5 cells were trypsinized and collected by centrifugation at 700 g for 5 min. The cells were then washed three times in ice-cold RNase-free PBS (BioWhittaker) and resuspended at 1.5*10^7 cells/ml in PBS. Wild type or mutant FL-J6/JFH-5′C19Rluc2AUbi RNA for electroporation was generated by in vitro transcription of XbaI-linearized DNA templates using the T7 MEGAscript kit (Ambion), followed by purification, essentially as described above (In vitro RNA transcription and fluorescent labeling). 5 μg of RNA was mixed with 400 μl of washed Huh-7.5 cells in a 2 mm-gap cuvette (BTX) and immediately pulsed (0.82 kV, five 99 μs pulses) with a BTX-830 electroporator. After a 10 min recovery at 25° C., pulsed cells were diluted into 10 ml of prewarmed growth medium. Cells from several electroporations were pooled to a common a stock and seeded in 6 well plates (5*10^5 cells per well). After 24 hr, medium was replaced and cells were grown in the presence of serial dilutions of the various inhibitory compounds (Sigma) identified in the screen. […] Untreated cells were used as a negative control for water soluble compounds. For compounds solubilized in DMSO, untreated cells were grown in the presence of corresponding concentrations of the solvent as a negative control. Medium was changed daily. After 72 hr of treatment, cells were subjected to an alamar blue based viability assay and luciferase assay.
(§2) Following 72 hrs of treatment, cells were incubated for 3 hrs at 37° C. in the presence of 10% Alamar Blue reagent (TREK Diagnostic Systems).
In general terms: Alamar Blue is a resazurin reagent that responds to reducing activity.

A short description of data set [2]: Alamar Blue viability assay. To be noted: human. How it is done: as §1, §2
The target in another data set is T1, HuR protein (Homo sapiens, UniProt Q15717).
T1 construct: made in house; […]
As to the kind of experiment: Microfluidic RNA binding assay of HuR (specificity of hits). The settings on record: 0.1 mM. The source says:
For each experiment, an image was taken after MITOMI and the final PBS wash. This was used to determine the concentration of surface bound protein (FITC channel) as well as surface bound target RNA (Cy3 channel). […] Data from multiple data points were averaged, and their standard deviations calculated. Results were then normalized to 1. Between 10-20 replicates were included for each probe tested. A control protein, Gus-his (Roche) was included in each experiment and subjected to the same analysis. When present, detected signal with Gus-his was used for background subtraction.
Specificity of hits identified in the small molecule screen: To determine the specificity of the hits identified in the small molecule screen, the HuR protein (one of the human RNA binding protein used to validate our RNA binding assay) was selected. […] Binding of HuR to the consensus 4A RNA sequence was tested in the presence of the inhibitory molecules shown to inhibit RNA binding by NS4B. […] Similarly, 0.1 mM of the identified compounds didn't have an inhibitory effect on binding of HuR to the 3′ terminus of the negative HCV RNA strand.

The conditions of data set [3]: human, in vivo; cited from earlier work.

T1 sequence (Q15717 whole entry): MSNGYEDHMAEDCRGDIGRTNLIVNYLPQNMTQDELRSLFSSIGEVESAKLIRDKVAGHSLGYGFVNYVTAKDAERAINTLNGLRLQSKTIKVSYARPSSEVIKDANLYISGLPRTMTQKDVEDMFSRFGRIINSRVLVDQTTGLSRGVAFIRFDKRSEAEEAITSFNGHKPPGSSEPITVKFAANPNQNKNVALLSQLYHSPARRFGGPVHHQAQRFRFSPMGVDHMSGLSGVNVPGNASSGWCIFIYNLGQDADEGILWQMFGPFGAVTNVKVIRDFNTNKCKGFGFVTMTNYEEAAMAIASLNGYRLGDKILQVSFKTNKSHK

For the molecule `CC(C)(C)c1ccc(Cn2cnc3ccccc32)cc1`, in data set [1] (5 uM), the AV score entry was “+++ (0-30% residual activity)” and the percent of normal HCV RNA replication remaining at 5 µM amounted to 30%. Besides, in data set [1] (10 uM), the AV score entry was “+++ (0-30% residual activity)” and the percent of normal HCV RNA replication remaining at 10 µM turned out to be 12%.
On to Interferon alpha B2, for which the “reduction of luciferase activity (positive control)” value in data set [1] (100 u/ml, 72 hr treatment) is “three log reduction”.
For the molecule `COC(=O)c1ccc(Cn2cnc3ccccc32)cc1`, in data set [1] (5 uM), the AV score result is listed as “+ (60-90% residual activity)” and the percent of normal HCV RNA replication remaining at 5 µM was 74%. For the same molecule, in data set [1] (10 uM), the AV score entry was “++ (30-60% residual activity)” and the percent of normal HCV RNA replication remaining at 10 µM stood at 54%.
Take `Cc1cc2ncn(Cc3ccc(Cl)cc3Cl)c2cc1C`: in data set [1] (5 uM), the AV score result is given as “+++ (0-30% residual activity)” and the percent of normal HCV RNA replication remaining at 5 µM was 30%. Besides, in data set [1] (10 uM), the AV score entry was “+++ (0-30% residual activity)” and the percent of normal HCV RNA replication remaining at 10 µM was 8%.
One may read the viability as a per cent measure of how many cells are alive, often set against a control. Higher therefore signals better survival. For `Clc1ccc(Cn2c(CN3CCCC3)nc3ccccc32)cc1` [drawing 374], the “Viab, percent of normal cell viability remaining” value with Huh7.5 cells (5 uM) worked out at 107%. For the same molecule, the “Viab, percent of normal cell viability remaining” value with Huh7.5 cells (10 uM) worked out at 93%. Besides, in data set [2], the viability at 72 h, 5 µM is 90 to 100% and the viability at 72 h, 10 µM was in the range of 90 to 100%. Moreover, in data set [1] (5 uM), the AV score entry is given as “+ (60-90% residual activity)” and the percent of normal HCV RNA replication remaining at 5 µM amounted to 62%. Moreover, in data set [1] (10 uM), the AV score entry is listed as “++ (30-60% residual activity)” and the percent of normal HCV RNA replication remaining at 10 µM came out at 37%.
For `Cc1nc2cc(Cl)ccc2n1Cc1ccccc1`, in data set [1] (5 uM), the AV score result is “+ (60-90% residual activity)” and the percent of normal HCV RNA replication remaining at 5 µM worked out at 87%. Besides, in data set [1] (10 uM), the AV score result is “+ (60-90% residual activity)” and the percent of normal HCV RNA replication remaining at 10 µM stood at 60%.
For `Cc1nc2ccccc2n1Cc1ccc(Br)cc1`, in data set [1] (5 uM), the AV score result was “+++ (0-30% residual activity)” and the percent of normal HCV RNA replication remaining at 5 µM was 3%. Besides, in data set [1] (10 uM), the AV score result is reported as “+++ (0-30% residual activity)” and the percent of normal HCV RNA replication remaining at 10 µM was found to be 2%.
As to `Cc1ccc(Cn2cnc3ccccc32)cc1`, in data set [1] (5 uM), the AV score result is recorded as “++ (30-60% residual activity)” and the percent of normal HCV RNA replication remaining at 5 µM stood at 49%. In data set [1] (10 uM), the AV score entry was “+++ (0-30% residual activity)” and the percent of normal HCV RNA replication remaining at 10 µM amounted to 23%.
As for `O=C(O)C1=CC(=C(c2ccc(O)c(C(=O)O)c2)c2ccc(O)c(C(=O)O)c2)C=CC1=O` [ATA, Aurintricarboxilic acid], at HuR protein, the “inhibitory effect on binding of HuR to the 3′ terminus of the negative HCV RNA strand” value was “significantly inhibited” and the “inhibitory effect on binding of HuR to the consensus 4A RNA sequence” value is recorded as “significantly inhibited”.
Take `COc1ccc(Cn2cnc3ccccc32)cc1`: in data set [1] (5 uM), the AV score result is reported as “+ (60-90% residual activity)” and the percent of normal HCV RNA replication remaining at 5 µM worked out at 70%. Moreover, in data set [1] (10 uM), the AV score entry is given as “++ (30-60% residual activity)” and the percent of normal HCV RNA replication remaining at 10 µM amounted to 58%.
In the case of `Cl.Clc1ccc(Cn2c(CN3CCCC3)nc3ccccc32)cc1` [Clemizole hydrochloride, 1-p-Chlorobenzyl-2-(1-pyrrolidinyl)methylbenzimidazole hydrochloride, reference compound], the cellular toxicity entry with Huh7.5 cells (at concentrations up to 20 μM, 72 hr, Alamar Blue) is given as “no measurable cellular toxicity”. In addition, the “time to relief of itching” value in data set [3] was 24 to 48 h. Further, the “decrease in viral replication” value in data set [1] (20 μM, luciferase at 72 hr) is “tenfold decrease”.
On to `OCc1nc2ccccc2n1Cc1ccc(Br)cc1`, for which, in data set [1] (5 uM), the AV score entry is recorded as “++ (30-60% residual activity)” and the percent of normal HCV RNA replication remaining at 5 µM was determined as 50%. In data set [1] (10 uM), the AV score entry is given as “+++ (0-30% residual activity)” and the percent of normal HCV RNA replication remaining at 10 µM was found to be 28%.
Taken in the same sequence, the figures for `Brc1ccc(Cn2cnc3ccccc32)cc1` were “+++ (0-30% residual activity)”, 23%, “+++ (0-30% residual activity)” and 8%.
